Test results as given in publication PMC10298275, “Antiproliferative Activity and Impact on Human Gut Microbiota of New O-Alkyl Derivatives of Naringenin and Their Oximes” (International Journal of Molecular Sciences, 2023).
Converted amounts (≈) assume the structure as drawn. Read-outs that look alike come from different tables or passages of the source.

Tests used:
HT-29 cells [1] = experiment: MTT assay, cell viability; format: cell-based, human; settings: HT-29, highest concentration 100 µg/mL, 24 h
Protocol: (§1) The HT-29 cells (ATCC, Manassas, VA, USA) were cultured within α-MEM (IIET PAS, Wrocław, Poland) supplemented with 10% fetal bovine serum (Sigma, St. Louis, MO, USA), antimycotic (100 μg/mL penicillin, 100 μg/mL streptomycin and 0.25 μg/mL amphotericin) (Sigma) and 2 mM glutamine (Sigma). The 3T3-L1 cells (ATCC, Manassas, VA, USA) were cultivated using DMEM high-glucose medium (IIET PAS, Wrocław, Poland) supplemented as above. Both cell lines were cultured at 37 °C in an atmosphere of 5% CO2.
First, 1 × 10^4 HT-29 cells or 5 × 10^3 3T3-L1 cells were seeded into a 96-well plate and incubated for one night. Then, cells were treated with different concentrations of the investigated compounds within 24 h. Afterwards, the medium was replaced with a fresh medium containing 0.5 mg/mL of 3-(4,5-dimethylthiazol-2-yl)-2,5-diphenyl-2H-tetrazolium bromide (MTT, Sigma) and incubated for 2 h at 37 °C. After removing the medium, the formazan salts were dissolved in dimethyl sulfoxide (DMSO, Sigma), and the absorbance of the solution was measured at 560 nm using a plate reader.

SRB assay, cytotoxicity [2] = format: cell-based, mouse; settings: mouse, 3T3-L1 cells; 3T3-L1, SRB, 24 h exposure, three independent repeats; read-out: Cytotoxicity (IC50 ± SD)
Protocol: as §1
(§2) The sulforhodamine B (SRB) assay was performed according to a previously published protocol. Briefly, 1 × 10^4 HT-29 or 5 × 10^3 3T3-L1 cells were seeded into 96-well plates. After attaching to the plate surface, the cells were incubated with 100, 75, 50, 25, 10 or 1 µg/mL of the investigated compounds for 24 h. After this time, proteins were precipitated with trichloroacetic acid and stained with SRB. The absorbance was measured at 560 nm using a GloMax Discover Microplate Reader (Promega, Madison, WI, USA).

SRB assay, cytotoxicity [3] = format: cell-based, human; settings: human, HT-29 cells; HT-29, SRB, 24 h exposure, three independent repeats; read-out: Cytotoxicity (IC50 ± SD)
Protocol: as §1, §2

HT-29 cells [4] = experiment: SRB assay, cytotoxicity; format: cell-based, human; settings: HT-29, SRB, up to 100 µg/mL
Protocol: as §1, §2

[5] = system: Enterococcus faecalis ATCC 29212; experiment: MIC, microdilution method; format: cell-based; settings: E. faecalis ATCC 29212, MHB, 24 h, 37 °C, tested 512 to 1 µg/mL
Protocol: (§3) Non-pathogenic reference strains representing the intestinal microbiome were used for the studies: Escherichia coli K12, Staphylococcus aureus ATCC 25923 and Enterococcus faecalis ATCC 29212. All strains were obtained from the collection of the Department of Microbiology at the Medical University of Wrocław.
(§4) The strains were received from the museum (−80 °C) and grown in tryptic soy broth (TSB, OXOID, Basingstoke, UK) under continuous shaking conditions (MaxQTM6000 incubator shaker, Thermo Scientific, Waltham, MA, USA) at 125 rpm at 37 °C. Then, they were moved to the growth media, namely tryptic soy agar (TSA, OXOID, Basingstoke, UK) and MacConkey agar (MC, Millipore, Darmstadt, Germany) for S. aureus or E. faecalis and E. coli, respectively.
(§5) A fresh 18–24 h culture was used for each study. For this purpose, a culture with a density of 1.5 × 10^8 CFU/mL in Mueller–Hinton broth (MHB, OXOID, Basingstoke, UK) was prepared and used for further microdilution studies.
(§6) The antimicrobial activity of the O-alkyl derivatives of naringenin and their oximes was tested in vitro using the microdilution method, showing the minimum inhibitory concentration (MIC), in accordance with the recommendations of the European Antimicrobial Susceptibility Testing Committee EUCAST [44]. MICs were determined in 96-well microdilution plates. The tests were carried out in MHB medium. The O-alkyl derivatives of naringenin and their oximes were tested in the concentration range of 512 to 1 µg/mL in a geometric process in MHB medium. The final concentration of the test strains in each test well was 5 × 10^5 CFU/mL. MICs were read after 18 h (for E. coli and S. aureus) and 24 h (for E. faecalis) incubation at 37 °C.
(§7) A strain growth control (tested strain in medium), background control for tested compounds (naringenin derivatives in MHB), medium control (only pure MHB) and compound solvent control (DMSO at test compound concentration, strain and MHB) were set for each experiment. Each test was set up with three independent experiments, each as three separate replicates.
(§8) The […], OD600, was measured in a plate reader (ASYS UVM340, BIOCHROM Ltd., Cambridge, UK). The background control of the tested compounds and the clean medium were included in the absorbance results.

[6] = system: Staphylococcus aureus ATCC 25923; experiment: MIC, microdilution method; format: cell-based; settings: S. aureus ATCC 25923, MHB, 18 h, 37 °C, tested 512 to 1 µg/mL
Protocol: as §3, §4, §5, §6, §7, §8

Escherichia coli K12 [7] = experiment: MIC, microdilution method; format: cell-based; settings: Escherichia coli; E. coli K12; MHB, 18 h, 37 °C; tested 512 to 1 µg/mL; read-out: MIC
Protocol: as §3, §4, §5, §6, §7, §8

[8] = system: Enterococcus faecalis ATCC 29212; experiment: MBC assay; format: cell-based; settings: Enterococcus faecalis, ATCC29212; E. faecalis ATCC 29212; read-out: MBC
Protocol: (§9) The minimum bactericidal concentration (MBC) was tested for all naringenin derivatives. First, 10 µL of medium was taken from the plate, on which the MIC was determined for the MIC value, the value below and the two values above. This volume was transferred to TSA or MC agar. After 18–24 h (depending on strain) incubation at 37 °C, colonies were counted. The concentration of test compounds at which no bacterial growth was observed was defined as the MBC value. Each experiment was repeated 3 times.

[9] = system: Staphylococcus aureus ATCC 25923; experiment: MBC assay; format: cell-based; settings: Staphylococcus aureus, ATCC25923; S. aureus ATCC 25923; read-out: MBC
Protocol: as §9

Escherichia coli K12 [10] = experiment: MBC assay; format: cell-based; settings: Escherichia coli; E. coli K12; read-out: MBC
Protocol: as §9

[11] = system: caspase 3/7 in HT-29 cells; experiment: Caspase-Glo 3/7 Assay; format: cell-based, human; settings: HT-29, 50 µg/mL, measured at 6, 12, 24 and 48 h
Protocol: The activity of two effector caspases 3 and 7 was analyzed using the Caspase-Glo 3/7 Assay (Promega) according to the recommendations of the manufacturer. The cells were seeded at a density of 1 × 10^4 per well for the test on a 96-well plate. Then, cells were incubated with A2, B2, A9, B9 and NG at a concentration of 50 µg/mL for 48 h. Half an hour before each measurement of caspase activity, an equal volume of Caspase-Glo 3/7 substrate solution was added to cells. The luminescence signals were detected using a GloMax Discover Microplate Reader at the 6th, 12th, 24th and 48th hours of the experiment. The reactions for each sample were repeated in triplicate and presented as the mean value.

HT-29 cells [12] = experiment: RealTime-Glo Annexin V Apoptosis and Necrosis Assay; format: cell-based, human; settings: HT-29, during 12 h incubation, applied concentrations 10-100 µg/mL
Protocol: The process of apoptosis was determined using the RealTime-Glo Annexin V Apoptosis and Necrosis Assay (Promega) according to the manufacturer’s protocol. Briefly, 1 × 10^4 HT-29 cells were seeded into a single well of a 96-well plate. After overnight incubation, the cells were treated with 10, 25, 50 and 100 µg/mL of the investigated compounds and detection reagent for 24 h. As a negative control, untreated cells were used. The luminescence, fluorescence and OD525 signals were detected at each hour of the first 12 h of incubation. The end measurement was performed at the 24th hour of the experiment. All samples were prepared in triplicate, and then their means were calculated.

[13] = Enterococcus faecalis, ATCC29212, read-out: MIC
[14] = Staphylococcus aureus, ATCC25923, read-out: MIC

| Structure (SMILES) | melting point [°C] | effect on colon adenocarcinoma cells (viability, MTT) (HT-29 cells [1]) | IC50 at 24 h (SRB assay, cytotoxicity [2]) [µg/mL] | IC50 at 24 h (SRB assay, cytotoxicity [3]) [µg/mL] | effect on the proliferation of the HT-29 cell line (HT-29 cells [4]) | MIC [5] | MIC [5, 13] [µg/mL] | MIC [6] | MIC [6, 14] [µg/mL] | MIC (Escherichia coli K12 [7]) [µg/mL] | MBC [8] [µg/mL] | MBC [9] [µg/mL] | MBC (Escherichia coli K12 [10]) [µg/mL] | caspase 3/7 activation [11] | annexin V luminescence and necrosis fluorescence signals versus untreated cells (HT-29 cells [12]) |
| --- | --- | --- | --- | --- | --- | --- | --- | --- | --- | --- | --- | --- | --- | --- | --- |
| CCCCCCCCCOc1ccc([C@@H]2CC(=O)c3c(O)cc(OCCCCCCCCC)cc3O2)cc1 [A8, 7,4′-Di-O-nonylnaringenin] | 70 to 71 | weak | > 100 | > 100 | no effect on the proliferation | 512 (>512) µg/mL | 512 (≈ 976 µM) | 512 (>512) µg/mL | 512 (≈ 976 µM) | > 512 | > 512 | > 512 | > 512 | – | – |
| CCCCCCCOc1ccc([C@@H]2CC(=O)c3c(O)cc(OCCCCCCC)cc3O2)cc1 [A4, 7,4′-Di-O-heptylnaringenin] | 74 to 75 | weak | > 100 | > 100 | no effect on the proliferation | – | 32 (≈ 68.3 µM) | >512 (>512) µg/mL | > 512 | > 512 | > 512 | > 512 | > 512 | – | – |
| CCCCCCOc1ccc([C@@H]2CC(=NO)c3c(O)cc(OCCCCCC)cc3O2)cc1 [B2, 7,4′-di-O-hexylnaringenin oxime] | – | – | 10.1 ± 6.49 (≈ 22.1 µM) | 49.8 ± 1.63 (≈ 109 µM) | – | >512 (>512) µg/mL | > 512 | – | > 512 | > 512 | > 512 | > 512 | > 512 | neither membrane switching of phosphatidylserine nor caspase activation was observed | both signals were similar to those for untreated cells |
| CCCCCCCOc1ccc([C@@H]2CC(=NO)c3c(O)cc(OCCCCCCC)cc3O2)cc1 [B4, 7,4′-Di-O-heptylnaringenin oxime] | 82 to 83 | – | > 100 | > 100 | no effect on the proliferation | >512 (>512) µg/mL | > 512 | – | > 512 | > 512 | > 512 | > 512 | > 512 | – | – |
| CCCCCCCCOc1ccc([C@@H]2CC(=O)c3c(O)cc(OCCCCCCCC)cc3O2)cc1 [A6, 7,4′-Di-O-octylnaringenin] | 60 to 61 | weak | > 100 | > 100 | no effect on the proliferation | – | 32 (≈ 64.4 µM) | >512 (>512) µg/mL | > 512 | > 512 | > 512 | > 512 | > 512 | – | – |
| CCCCCCCCCOc1ccc([C@@H]2CC(=NO)c3c(O)cc(OCCCCCCCCC)cc3O2)cc1 [B8, 7,4′-Di-O-nonylnaringenin oxime] | 87 to 88 | – | > 100 | > 100 | no effect on the proliferation | >512 (>512) µg/mL | > 512 | – | > 512 | > 512 | > 512 | > 512 | > 512 | – | – |
| CCCCCCCCCCCOc1ccc([C@@H]2CC(=O)c3c(O)cc(OCCCCCCCCCCC)cc3O2)cc1 [A10, 7,4′-Di-O-undecylnaringenin] | 63 to 64 | weak | > 100 | > 100 | no effect on the proliferation | – | 32 (≈ 55.1 µM) | – | 256 (≈ 441 µM) | > 512 | > 512 | > 512 | > 512 | – | – |
| CCCCCCCCCCCOc1ccc([C@@H]2CC(=NO)c3c(O)cc(OCCCCCCCCCCC)cc3O2)cc1 [B10, 7,4′-Di-O-undecylnaringenin oxime] | 95 to 96 | – | > 100 | > 100 | no effect on the proliferation | >512 (>512) µg/mL | > 512 | – | > 512 | > 512 | > 512 | > 512 | > 512 | – | – |
